Test results from patent US20250041323A1, “BDNF PRODUCTION PROMOTER” (YAMASA CORPORATION, priority 2022, published 2025).

Legend:
[1] = system: BDNF mRNA in C2C12 cell-derived myotube cells; assay: BDNF gene expression promoting effect-1: BDNF mRNA by real-time PCR in C2C12 cell-derived myotube cells; assay type: cell-based, mouse; details: 1 mM, 4 hours, corrected to β-actin mRNA, vs control without test substance, Dunnett's test, n=3
Procedure: Mouse myoblast cell line C2C12 cells (RIKEN BRC, RCB0987) were suspended in a growth medium (DMEM containing 10% FBS and antibiotics), seeded in a 24-well plate, and cultured in an incubator at 37° C. and 5% CO2 until the cell density reached 70-90%. The growth medium was removed and replaced with a differentiation induction medium (DMEM containing 2% horse serum and antibiotics). After culturing it for 6 days while changing the medium once every 2 days, cytidylic acid (CMP) or uridylic acid (UMP) was added to a final concentration of 1 mM and cultured for 4 hours. The medium was removed, and the total RNA was extracted from the cells using NucleoSpin® RNA (TAKARA BIO INC).
Using the total RNA as a template, a reverse transcription reaction solution was prepared using ReverTra Ace® qPCR RT Kit (TOYOBO). The reverse transcription reaction solution, GoTaq qPCR Master Mix (Promega), and a real-time PCR device Thermal Cycler Dice® Real Time System (TAKARA BIO INC) were used to measure amounts of mRNAs of BDNF and β-actin as an internal standard. Analysis was performed by relative quantification, and the amount of the mRNA was corrected using the amount of mRNA of β-actin as an endogenous control.
The threshold of statistical significance was set at 5%. In addition, unless otherwise specified, including the following Examples, each sample was examined at n=3.

BDNF mRNA in PC-12 cells [2] = assay: BDNF gene expression promoting effect-3: BDNF mRNA by real-time PCR in PC-12 cells (uridine); assay type: cell-based, rat; details: 200 μM, 1 hour, n=3
Procedure: PC-12 cells were suspended in DMEM containing 5% FBS (fetal bovine serum), 10% horse serum, and antibiotics (100 units/ml of penicillin, 100 μg/ml of streptomycin), seeded on a collagen-coated 24-well plate at a density of 2.4×10^5 cells/well, and cultured in an incubator at 37° C. and 5% CO2 for 18 hours. Uridine, a precursor of uridylic acid, was added to a final concentration of 200 μM, and cultured for 1 hour. Subsequently, mRNA was extracted, and the amount of mRNA of BDNF was evaluated by reverse transcription and real-time PCR analysis in the same procedure as that of Example 1.

[3] = system: BDNF protein in PC-12 cells; assay: BDNF protein by Rat BDNF ELISA in PC-12 cell lysate; assay type: cell-based; details: 200 µM, 24 hours, t-test vs control, n=3
Procedure: PC-12 cells were suspended in DMEM containing 20% FBS and antibiotics, seeded on a collagen-coated 24-well plate at a density of 2.4×10^5 cells/well, and cultured in an incubator at 37° C. and 5% CO2 for 18 hours. Uridine was added to a final concentration of 200 µM, and cultured for 24 hours. The medium was removed by suction, and 100 μl of RIPA buffer (50 mM Tris-HCl (pH 7.6), 150 mM NaCl, 1% NP-40, 0.5% sodium deoxycholate, 1% SDS) containing 1% protease inhibitor cocktail (nacalai tesque) was added, and the cells were disrupted by pipetting and ultrasonication. The amount of BDNF in the cell lysate was measured using a Rat BDNF ELISA Kit (RayBiotech). The amount of protein in the cell lysate was measured using a Micro BCA™ Protein Assay Kit (Thermo Fisher Scientific), and the amount of BDNF per total protein mass was calculated. […] The threshold for statistical significance was set at 5%.

BDNF mRNA in PC-12 cells [4] = assay: BDNF gene expression promoting effect-2: BDNF mRNA by real-time PCR in PC-12 cells (uridylic acid); assay type: cell-based, rat; details: 500 µM, 4 hours, n=3
Procedure: Rat adrenal medulla brown tumor-derived cells (PC-12 cells, JCRB0733), used as nervous system model cells, were suspended in DMEM containing 20% FBS and antibiotics, seeded on a collagen-coated 24-well plate at a density of 2.4×10^5 cells/well, and cultured in an incubator at 37° C. and 5% CO2 for 18 hours. Uridylic acid (UMP) was added to a final concentration of 500 µM, and cultured for 4 hours.
Subsequently, mRNA was extracted and an amount of mRNA of BDNF was evaluated by reverse transcription and real-time PCR analysis in the same procedure as that of Example 1.

Row | SMILES | amount of mRNA of BDNF [1] | amount of mRNA of BDNF (BDNF mRNA in PC-12 cells [2]) | amount of BDNF per total protein mass [3] | amount of mRNA of BDNF (BDNF mRNA in PC-12 cells [4])
1 | Nc1ccn([C@@H]2O[C@H](COP(=O)(O)O)[C@@H](O)[C@H]2O)c(=O)n1 [cytidylic acid] | significantly increased |  |  | 
2 | O=c1ccn([C@@H]2O[C@H](CO)[C@@H](O)[C@H]2O)c(=O)[nH]1 [uridine] |  | significantly increased | significantly increased | 
3 | O=c1ccn([C@@H]2O[C@H](COP(=O)(O)O)[C@@H](O)[C@H]2O)c(=O)[nH]1 [uridylic acid] | significantly increased |  |  | significantly increased
